The target in the test is T1, human full-length MKNK1 (Homo sapiens, UniProt Q9BUB5, T385D).
T1 construct: GST (N); purchased Carna Biosciences 02-145; host or cells: insect cells (baculovirus expression system)
T1 sequence (Q9BUB5 1-424 isoform Q9BUB5-2 T344D): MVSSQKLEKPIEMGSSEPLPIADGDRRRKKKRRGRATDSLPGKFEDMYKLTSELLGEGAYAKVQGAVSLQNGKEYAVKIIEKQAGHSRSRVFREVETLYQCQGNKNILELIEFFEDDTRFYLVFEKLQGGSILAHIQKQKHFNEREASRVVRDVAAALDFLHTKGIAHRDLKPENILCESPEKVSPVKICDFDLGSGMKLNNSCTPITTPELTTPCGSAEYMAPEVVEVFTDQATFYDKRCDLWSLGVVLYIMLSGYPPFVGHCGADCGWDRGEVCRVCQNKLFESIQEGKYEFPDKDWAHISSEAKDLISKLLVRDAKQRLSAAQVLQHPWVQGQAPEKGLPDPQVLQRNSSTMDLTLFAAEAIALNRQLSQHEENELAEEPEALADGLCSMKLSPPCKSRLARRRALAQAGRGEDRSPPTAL
Nature of the test: MKNK1 kinase high ATP assay (TR-FRET). It is filed as biochemical. The note with it: high ATP (2 mM final), 15 min preincubation with enzyme, GST-MKNK1 (T344D). In a few lines: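 GST-tagged human full-length MKNK1 (T344D), insect-cell expressed, preincubated 15 min at 22 °C with compound, then reacted 30 min at 22 °C with 2 mM ATP and 0.06 μM biotinylated peptide (final) in HEPES pH 7.5. Phospho-peptide detected by TR-FRET (665/620 nm ratio) after EDTA stop; normalised to no-inhibitor and no-enzyme controls.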
On the technique in general: TR-FRET usually uses a lanthanide donor and a delayed reading to cut background.
What is called IC50 is the midpoint of a concentration-inhibition curve. `COc1nc2[nH]ncc2cc1Nc1ncnc2sc3c(c12)CCN(C(=O)N(C)C)C3` [Example 65, 4-[(6-Methoxy-1H-pyrazolo[3,4-b]pyridin-5-yl)amino]-N,N-dimethyl-5,8-dihydropyrido[4′,3′:4,5]thieno[2,3-d]pyrimidine-7(6H)-carboxamide] registered an IC50 of 5 nM.
For `CN1CCC(C(=O)N2CCc3c(sc4ncnc(Nc5ccc6[nH]c(=O)sc6c5)c34)C2)CC1` [Example 66, 6-({7-[(1-Methylpiperidin-4-yl)carbonyl]-5,6,7,8-tetrahydropyrido[4′,3′:4,5]thieno[2,3-d]pyrimidin-4-yl}amino)-1,3-benzothiazol-2(3H)-one], the concentration for half-maximal inhibition (IC50) worked out at 90 nM.
As for `CN1CCC(C(=O)N2CCc3c(sc4ncnc(Nc5cnc6[nH]ncc6c5)c34)C2)CC1` [Example 67, (1-Methylpiperidin-4-yl)[4-(1H-pyrazolo[3,4-b]pyridin-5-ylamino)-5,8-dihydropyrido[4′,3′:4,5]thieno[2,3-d]pyrimidin-7(6H)-yl]methanone], the figure is 53 nM.
`COc1cc2[nH]ncc2cc1Nc1ncnc2sc3c(c12)CCN(C(=O)C1CCN(C)CC1)C3` [Example 68, {4-[(6-Methoxy-1H-indazol-5-yl)amino]-5,8-dihydropyrido[4′,3′:4,5]thieno[2,3-d]pyrimidin-7(6H)-yl}(1-methylpiperidin-4-yl)methanone] came in with an IC50 of 9 nM.
The result for `CN1CCC(C(=O)N2CCc3c(sc4ncnc(Nc5ccc6[nH]ncc6c5)c34)C2)CC1` [Example 69, [4-(1H-Indazol-5-ylamino)-5,8-dihydropyrido[4′,3′:4,5]thieno[2,3-d]pyrimidin-7(6H)-yl](1-methylpiperidin-4-yl)methanone] reads 16 nM; that for `COc1cc2[nH]ncc2cc1Nc1ncnc2sc3c(c12)CCN(C(=O)N1CCCCC1)C3` [Example 70, {4-[(6-Methoxy-1H-indazol-5-yl)amino]-5,8-dihydropyrido[4′,3′:4,5]thieno[2,3-d]pyrimidin-7(6H)-yl}(piperidin-1-yl)methanone], 19 nM; that for `COc1cc2[nH]ncc2cc1Nc1ncnc2sc3c(c12)CCN(CCC(=O)N(C)C)C3` [Example 71, 3-{4-[(6-Methoxy-1H-indazol-5-yl)amino]-5,8-dihydropyrido[4′,3′:4,5]thieno[2,3-d]pyrimidin-7(6H)-yl}-N,N-dimethylpropanamide], 19 nM.
As for `COc1cc2[nH]ncc2cc1Nc1ncnc2sc3c(c12)CCN(C(=O)N1CCCC1)C3` [Example 72, {4-[(6-Methoxy-1H-indazol-5-yl)amino]-5,8-dihydropyrido[4′,3′:4,5]thieno[2,3-d]pyrimidin-7(6H)-yl}(pyrrolidin-1-yl)methanone], the figure is 10 nM; as for `COc1cc2[nH]ncc2cc1Nc1ncnc2sc3c(c12)CCN(C(=O)c1cccn1C)C3` [Example 73, {4-[(6-Methoxy-1H-indazol-5-yl)amino]-5,8-dihydropyrido[4′,3′:4,5]thieno[2,3-d]pyrimidin-7(6H)-yl}(1-methyl-1H-pyrrol-2-yl)methanone], 7 nM.
In turn, `CSc1cc2[nH]ncc2cc1Nc1ncnc2sc3c(c12)CCN(C(=O)C1CCN(C)CC1)C3` [Example 74, (1-Methylpiperidin-4-yl)[4-{[6-(methylsulfanyl)-1H-indazol-5-yl]amino}-5,8-dihydropyrido[4′,3′:4,5]thieno[2,3-d]pyrimidin-7(6H)-yl]methanone] displayed an IC50 of 4 nM.
As for `COc1cc2[nH]ncc2cc1Nc1ncnc2sc3c(c12)CCN(C(=O)c1cnc[nH]1)C3` [Example 75, 1H-Imidazol-5-yl{4-[(6-methoxy-1H-indazol-5-yl)amino]-5,8-dihydropyrido[4′,3′:4,5]thieno[2,3-d]pyrimidin-7(6H)-yl}methanone], the figure is 6 nM; as for `COc1cc2[nH]ncc2cc1Nc1ncnc2sc3c(c12)CCN(C(=O)c1ccc(Cl)n1C)C3` [Example 76, (5-Chloro-1-methyl-1H-pyrrol-2-yl){4-[(6-methoxy-1H-indazol-5-yl)amino]-5,8-dihydropyrido[4′,3′:4,5]thieno[2,3-d]pyrimidin-7(6H)-yl}methanone], 10 nM.
The result for `CN1CCC(C(=O)N2CCc3c(sc4ncnc(Nc5cc6cn[nH]c6cn5)c34)C2)CC1` [Example 77, (1-Methylpiperidin-4-yl)[4-(1H-pyrazolo[3,4-c]pyridin-5-ylamino)-5,8-dihydropyrido[4′,3′:4,5]thieno[2,3-d]pyrimidin-7(6H)-yl]methanone] reads 28 nM.
`CCOCCN(C)C(=O)N1CCc2c(sc3ncnc(Nc4cc5cn[nH]c5cc4OC)c23)C1` [Example 78, N-(2-Ethoxyethyl)-4-[(6-methoxy-1H-indazol-5-yl)amino]-N-methyl-5,8-dihydropyrido[4′,3′:4,5]thieno[2,3-d]pyrimidine-7(6H)-carboxamide] registered a 50% inhibitory concentration (IC50) of 1020 nM. This IC50 is about 36-fold higher than that of the compound before.
The result for `CN1CCC(C(=O)N2CCc3c(sc4ncnc(Nc5ccn6nccc6c5)c34)C2)CC1` [Example 79, (1-Methylpiperidin-4-yl)[4-(pyrazolo[1,5-a]pyridin-5-ylamino)-5,8-dihydropyrido[4′,3′:4,5]thieno[2,3-d]pyrimidin-7(6H)-yl]methanone] reads 188 nM; that for `COc1cc2[nH]ncc2cc1Nc1ncnc2sc3c(c12)CCN(Cc1ncon1)C3` [Example 80, N-(6-Methoxy-1H-indazol-5-yl)-7-(1,2,4-oxadiazol-3-ylmethyl)-5,6,7,8-tetrahydropyrido[4′,3′:4,5]thieno[2,3-d]pyrimidin-4-amine], 17 nM.
The result for `COc1cc2[nH]ncc2cc1Nc1ncnc2sc3c(c12)CCN(C(=O)c1cocn1)C3` [Example 81, {4-[(6-Methoxy-1H-indazol-5-yl)amino]-5,8-dihydropyrido[4′,3′:4,5]thieno[2,3-d]pyrimidin-7(6H)-yl}(1,3-oxazol-4-yl)methanone] reads 5 nM; that for `COc1cc2[nH]ncc2cc1NCCN(C)C(=O)N1CCc2c(sc3ncnc(Nc4cc5cn[nH]c5cc4OC)c23)C1` [Example 82, 4-[(6-Methoxy-1H-indazol-5-yl)amino]-N-{2-[(6-methoxy-1H-indazol-5-yl)amino]ethyl}-N-methyl-5,8-dihydropyrido[4′,3′:4,5]thieno[2,3-d]pyrimidine-7(6H)-carboxamide], 48 nM.
Turning to `COc1cc2[nH]ncc2cc1Nc1ncnc2sc3c(c12)CCN(CCCN1CCNC1=O)C3` [Example 83, 1-(3-{4-[(6-Methoxy-1H-indazol-5-yl)amino]-5,8-dihydropyrido[4′,3′:4,5]thieno[2,3-d]pyrimidin-7(6H)-yl}propyl)imidazolidin-2-one], 15 nM corresponded to half-maximal inhibition (IC50).
As for `COc1cc2[nH]ncc2cc1Nc1ncnc2sc3c(c12)CCN(CCCn1cccc1)C3` [Example 84, N-(6-Methoxy-1H-indazol-5-yl)-7-[3-(1H-pyrrol-1-yl)propyl]-5,6,7,8-tetrahydropyrido[4′,3′:4,5]thieno[2,3-d]pyrimidin-4-amine], the figure is 8 nM; as for `COc1cc2[nH]ncc2cc1Nc1ncnc2sc3c(c12)CCN(CCN1CCCC1=O)C3` [Example 85, 1-(2-{4-[(6-Methoxy-1H-indazol-5-yl)amino]-5,8-dihydropyrido[4′,3′:4,5]thieno[2,3-d]pyrimidin-7(6H)-yl}ethyl)pyrrolidin-2-one], 10 nM; as for `COc1cc2[nH]ncc2cc1Nc1ncnc2sc3c(c12)CCN(CCCN1CCCC1=O)C3` [Example 86, 1-(3-{4-[(6-Methoxy-1H-indazol-5-yl)amino]-5,8-dihydropyrido[4′,3′:4,5]thieno[2,3-d]pyrimidin-7(6H)-yl}propyl)pyrrolidin-2-one], 12 nM.
`COc1cc2[nH]ncc2cc1Nc1ncnc2sc3c(c12)CCN(CCCN1CCOCC1=O)C3` [Example 87, 4-(3-{4-[(6-Methoxy-1H-indazol-5-yl)amino]-5,8-dihydropyrido[4′,3′:4,5]thieno[2,3-d]pyrimidin-7(6H)-yl}propyl)morpholin-3-one] displayed an IC50 of 16 nM.
Regarding `COc1cc2[nH]ncc2cc1Nc1ncnc2sc3c(c12)CCN(Cc1cc(C(=O)N(C)C)no1)C3` [Example 88, 5-({4-[(6-Methoxy-1H-indazol-5-yl)amino]-5,8-dihydropyrido[4′,3′:4,5]thieno[2,3-d]pyrimidin-7(6H)-yl}methyl)-N,N-dimethyl-1,2-oxazole-3-carboxamide], the concentration for half-maximal inhibition (IC50) amounted to 9 nM.
`COc1cc2[nH]ncc2cc1Nc1ncnc2sc3c(c12)CCN(CCCN1C[C@@H](C)O[C@@H](C)C1)C3` [Example 89, 7-{3-[(2R,6S)-2,6-Dimethylmorpholin-4-yl]propyl}-N-(6-methoxy-1H-indazol-5-yl)-5,6,7,8-tetrahydropyrido[4′,3′:4,5]thieno[2,3-d]pyrimidin-4-amine] registered an IC50 of 3 nM.
The result for `COc1cc2[nH]ncc2cc1Nc1ncnc2sc3c(c12)CCN(CCCN1CCOCC1)C3` [Example 90, N-(6-Methoxy-1H-indazol-5-yl)-7-[3-(morpholin-4-yl)propyl]-5,6,7,8-tetrahydropyrido[4′,3′:4,5]thieno[2,3-d]pyrimidin-4-amine] reads 4 nM; that for `COc1cc2[nH]ncc2cc1Nc1ncnc2sc3c(c12)CCN(C(=O)C1CCCC1)C3` [Example 91, Cyclopentyl{4-[(6-methoxy-1H-indazol-5-yl)amino]-5,8-dihydropyrido[4′,3′:4,5]thieno[2,3-d]pyrimidin-7(6H)-yl}methanone], 3 nM.
As for `COc1cc2[nH]ncc2cc1Nc1ncnc2sc3c(c12)CCN(C(=O)C1CCCCC1)C3` [Example 92, Cyclohexyl{4-[(6-methoxy-1H-indazol-5-yl)amino]-5,8-dihydropyrido[4′,3′:4,5]thieno[2,3-d]pyrimidin-7(6H)-yl}methanone], the figure is 3 nM.
